Data from patent US9862717B2 (Merck Patent GmbH, priority 2014, dated 2018).

What follows are molecules tested against T1, CDK8/CycC (Homo sapiens, UniProt P49336) (assay: FRET based Lanthascreen binding competition assay for CDK8 inhibitory activity). Conditions: CDK8 co-expressed with CycC; class symbols; read-out: IC50.
T1 construct: purchased Invitrogen PV4402
From the text: Biochemical Assay for CDK8 Inhibitory Activity FRET based Lanthascreen binding competition assay: A dye-labeled ATP competitive probe served as a FRET acceptor upon binding to CDK8 labeled with a strepavidin -Eu-chelate (via a biotinylated anti His antibody). The result was a fluorescence signal at 647 nm. In case this probe was competed by an inhibitor, such a signal cannot be generated any more. The CDK8 used for this assay was a protein co-expressed with CycC. The assay procedure for an assay in a 1536 well plate was performed according to the following: 2 μL CDK8/biotin-anti-His Ab/SA-Eu mix in Assay buffer were pipetted into the wells of a micro plate. 1 μL compound in 20 mM Hepes buffer/5% DMSO was added. The plate was shaken for 30 sec and incubated for 20 min at RT. 2 μL Alexa647-probe in assay buffer were added. The plate was shaken for 30 sec again and incubated for 60 min at RT in the dark. Then the plate was read out on a Perkin Elmer Envision (mode LANCE/TRF, excitation 340 nm emission 650 nm). […] The readouts were fitted to IC50 curves using Genedata Condoseo.

T1 sequence (P49336 whole entry): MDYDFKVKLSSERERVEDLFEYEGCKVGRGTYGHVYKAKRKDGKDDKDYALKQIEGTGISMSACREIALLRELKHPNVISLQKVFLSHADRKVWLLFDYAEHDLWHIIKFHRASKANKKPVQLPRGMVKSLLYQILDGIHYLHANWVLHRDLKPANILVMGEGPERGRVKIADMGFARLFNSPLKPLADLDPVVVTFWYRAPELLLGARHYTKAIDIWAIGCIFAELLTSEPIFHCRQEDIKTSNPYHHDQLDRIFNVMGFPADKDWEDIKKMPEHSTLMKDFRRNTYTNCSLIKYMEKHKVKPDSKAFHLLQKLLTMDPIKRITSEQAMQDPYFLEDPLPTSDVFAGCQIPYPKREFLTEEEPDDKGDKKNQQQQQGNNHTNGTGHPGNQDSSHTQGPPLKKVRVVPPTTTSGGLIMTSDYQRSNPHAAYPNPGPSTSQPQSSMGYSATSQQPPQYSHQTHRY
T1 sequence (P24863 whole entry partner): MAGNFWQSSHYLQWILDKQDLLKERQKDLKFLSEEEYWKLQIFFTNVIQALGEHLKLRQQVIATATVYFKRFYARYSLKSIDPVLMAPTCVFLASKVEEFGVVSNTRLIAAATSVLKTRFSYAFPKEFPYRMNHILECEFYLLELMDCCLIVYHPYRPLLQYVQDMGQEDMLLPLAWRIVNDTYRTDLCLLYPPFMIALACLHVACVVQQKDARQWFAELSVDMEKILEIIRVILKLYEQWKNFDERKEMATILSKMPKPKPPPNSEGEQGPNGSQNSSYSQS

IC50 [µM] | SMILES
0.1 to 1 | Cc1n[nH]c2ncc(C(=O)N3CCCCC3Cc3ccccc3)cc12 (centres unmarked) [compound 19, (2-Benzyl-piperidin-1-yl)-(3-methyl-1H-pyrazolo[3,4-b]pyridin-5-yl)-methanone]
< 0.01 | Cc1n[nH]c2ncc(C(=O)N3CCCC3c3ccccc3)cc12 (centres unmarked) [compound 20, (3-Methyl-1H-pyrazolo[3,4-b]pyridin-5-yl)-(2-phenyl-pyrrolidin-1-yl)-methanone]
0.01 to 0.1 | Cc1n[nH]c2ncc(C(=O)N3CCCC3c3cccc(Cl)c3)cc12 (centres unmarked) [compound 21, [2-(3-Chloro-phenyl)-pyrrolidin-1-yl]-(3-methyl-1H-pyrazolo[3,4-b]pyridin-5-yl)-methanone]
0.01 to 0.1 | Cc1n[nH]c2ncc(C(=O)N3CCC(c4ccccc4)C3)cc12 (centres unmarked) [compound 22, (3-Methyl-1H-pyrazolo[3,4-b]pyridin-5-yl)-(3-phenyl-pyrrolidin-1-yl)-methanone]
0.01 to 0.1 | Cc1n[nH]c2ncc(C(=O)N3CCCC3c3ccccc3Cl)cc12 (centres unmarked) [compound 23, [2-(2-Chloro-phenyl)-pyrrolidin-1-yl]-(3-methyl-1H-pyrazolo[3,4-b]pyridin-5-yl)-methanone]
0.1 to 1 | Cc1n[nH]c2ncc(C(=O)N3CCCC[C@H]3Cc3ccccc3)cc12 [compound 24, ((S)-2-Benzyl-piperidin-1-yl)-(3-methyl-1H-pyrazolo[3,4-b]pyridin-5-yl)-methanone]
< 0.01 | Cc1n[nH]c2ncc(C(=O)N3CCCC3c3ccc(F)cc3)cc12 (centres unmarked) [compound 26, [2-(4-Fluoro-phenyl)-pyrrolidin-1-yl]-(3-methyl-1H-pyrazolo[3,4-b]pyridin-5-yl)-methanone]
0.01 to 0.1 | Cc1n[nH]c2ncc(C(=O)N3CCCC[C@H]3c3ccccc3)cc12 [compound 28, (3-Methyl-1H-pyrazolo[3,4-b]pyridin-5-yl)-((S)-2-phenyl-piperidin-1-yl)-methanone]
0.1 to 1 | Cc1n[nH]c2ncc(C(=O)N3CCCC3c3ccccn3)cc12 (centres unmarked) [compound 30, (3-Methyl-1H-pyrazolo[3,4-b]pyridin-5-yl)-(2-pyridin-2-yl-pyrrolidin-1-yl)-methanone]
< 0.01 | CC(C)Cc1n[nH]c2ccc(C(=O)N3CCC[C@H]3c3ccc(Cl)cc3)cc12 [compound 31]
0.1 to 1 | Cc1n[nH]c2ncc(C(=O)N3CCCC3c3ccncc3)cc12 (centres unmarked) [compound 32, (3-Methyl-1H-pyrazolo[3,4-b]pyridin-5-yl)-(2-pyridin-4-yl-pyrrolidin-1-yl)-methanone]
0.1 to 1 | CSc1ccccc1[C@@H]1CCCN1C(=O)c1cnc2[nH]nc(C)c2c1 [compound 33, (3-Methyl-1H-pyrazolo[3,4-b]pyridin-5-yl)-[(S)-2-(2-methylsulfanyl-phenyl)-pyrrolidin-1-yl]-methanone]
0.1 to 1 | CSc1ccccc1[C@H]1CCCN1C(=O)c1cnc2[nH]nc(C)c2c1 [compound 34, (3-Methyl-1H-pyrazolo[3,4-b]pyridin-5-yl)-[(R)-2-(2-methylsulfanyl-phenyl)-pyrrolidin-1-yl]-methanone]
0.01 to 0.1 | Cc1n[nH]c2ncc(C(=O)N3CCC[C@H]3c3ccccc3Cl)cc12 [compound 36, [(S)-2-(2-Chloro-phenyl)-pyrrolidin-1-yl]-(3-methyl-1H-pyrazolo[3,4-b]pyridin-5-yl)-methanone]
0.1 to 1 | Cc1n[nH]c2ncc(C(=O)N3CCC[C@@H]3c3ccccc3Cl)cc12 [compound 37, [(R)-2-(2-Chloro-phenyl)-pyrrolidin-1-yl]-(3-methyl-1H-pyrazolo[3,4-b]pyridin-5-yl)-methanone]
0.1 to 1 | Cc1n[nH]c2ncc(C(=O)N3CCC[C@@H]3c3ccccc3)cc12 [compound 38, (3-Methyl-1H-pyrazolo[3,4-b]pyridin-5-yl)-((R)-2-phenyl-pyrrolidin-1-yl)-methanone]
< 0.01 | Cc1n[nH]c2ncc(C(=O)N3CCC[C@H]3c3ccccc3)cc12 [compound 39, (3-Methyl-1H-pyrazolo[3,4-b]pyridin-5-yl)-((S)-2-phenyl-pyrrolidin-1-yl)-methanone]
0.1 to 1 | Cc1n[nH]c2ncc(C(=O)N3CC[C@H](c4ccccc4)C3)cc12 [compound 40, (3-Methyl-1H-pyrazolo[3,4-b]pyridin-5-yl)-((R)-3-phenyl-pyrrolidin-1-yl)-methanone]

IC50 [µM] | SMILES
0.01 to 0.1 | Cc1n[nH]c2ncc(C(=O)N3CC[C@@H](c4ccccc4)C3)cc12 [compound 41, (3-Methyl-1H-pyrazolo[3,4-b]pyridin-5-yl)-((S)-3-phenyl-pyrrolidin-1-yl)-methanone]
< 0.01 | Cc1n[nH]c2ncc(C(=O)N3CCC[C@H]3c3ccc(F)cc3)cc12 [compound 43, [(S)-2-(4-Fluoro-phenyl)-pyrrolidin-1-yl]-(3-methyl-1H-pyrazolo[3,4-b]pyridin-5-yl)-methanone]
0.1 to 1 | Cc1n[nH]c2ncc(C(=O)N3CCC[C@@H]3c3ccc(F)cc3)cc12 [compound 44, [(R)-2-(4-Fluoro-phenyl)-pyrrolidin-1-yl]-(3-methyl-1H-pyrazolo[3,4-b]pyridin-5-yl)-methanone]
0.1 to 1 | Cc1n[nH]c2ncc(C(=O)N3CCC[C@@H]3c3cccc(Cl)c3)cc12 [compound 45, [(r)-2-(3-Chloro-phenyl)-pyrrolidin-1-yl]-(3-methyl-1H-pyrazolo[3,4-b]pyridin-5-yl)-methanone]
0.01 to 0.1 | Cc1n[nH]c2ncc(C(=O)N3CCC[C@H]3c3cccc(Cl)c3)cc12 [compound 46, [(S)-2-(3-Chloro-phenyl)-pyrrolidin-1-yl]-(3-methyl-1H-pyrazolo[3,4-b]pyridin-5-yl)-methanone]
< 0.01 | Cc1n[nH]c2ccc(C(=O)N3CCC[C@H]3c3ccc(Br)cc3)cc12 [compound 49, [(S)-2-(4-Bromo-phenyl)-pyrrolidin-1-yl]-(3-methyl-1H-indazol-5-yl)-methanone]
0.1 to 1 | Cc1n[nH]c2ccc(C(=O)N3CCC[C@@H]3c3ccc(Br)cc3)cc12 [compound 50, [(R)-2-(4-Bromo-phenyl)-pyrrolidin-1-yl]-(3-methyl-1H-indazol-5-yl)-methanone]
0.1 to 1 | Cc1n[nH]c2ccc(C(=O)N3CCC[C@@H]3c3ccc(Br)cc3)nc12 [compound 53, [(R)-2-(4-Bromo-phenyl)-pyrrolidin-1-yl]-(3-methyl-1H-pyrazolo[4,3-b]pyridin-5-yl)-methanone]
< 0.01 | Cc1n[nH]c2ccc(C(=O)N3CCC[C@H]3c3ccc(Br)cc3)nc12 [compound 54, [(S)-2-(4-Bromo-phenyl)-pyrrolidin-1-yl]-(3-methyl-1H-pyrazolo[4,3-b]pyridin-5-yl)-methanone]
0.01 to 0.1 | Cc1n[nH]c2ncc(C(=O)N3CCC3c3ccc(Cl)cc3)cc12 (centres unmarked) [compound 55, [2-(4-Chloro-phenyl)-azetidin-1-yl]-(3-methyl-1H-pyrazolo[3,4-b]pyridin-5-yl)-methanone]
0.01 to 0.1 | Cc1n[nH]c2ncc(C(=O)N3CC[C@H]3c3ccc(F)cc3)cc12 [compound 56, [(S)-2-(4-Fluoro-phenyl)-azetidin-1-yl]-(3-methyl-1H-pyrazolo[3,4-b]pyridin-5-yl)-methanone]
0.1 to 1 | Cc1n[nH]c2ncc(C(=O)N3CCCCCC3c3ccc(Cl)cc3)cc12 (centres unmarked) [compound 57, [2-(4-Chloro-phenyl)-azepan-1-yl]-(3-methyl-1H-pyrazolo[3,4-b]pyridin-5-yl)-methanone]
0.01 to 0.1 | Cc1n[nH]c2ncc(C(=O)N3CCCCCC3c3cccc(F)c3)cc12 (centres unmarked) [compound 58, [2-(3-Fluoro-phenyl)-azepan-1-yl]-(3-methyl-1H-pyrazolo[3,4-b]pyridin-5-yl)-methanone]
0.01 to 0.1 | Cc1n[nH]c2ncc(C(=O)N3CCCCC(c4ccc(Cl)cc4)C3)cc12 (centres unmarked) [compound 59, [3-(4-Chloro-phenyl)-azepan-1-yl]-(3-methyl-1H-pyrazolo[3,4-b]pyridin-5-yl)-methanone]
< 0.01 | Cc1ccc(C2CCCN2C(=O)c2cnc3[nH]nc(C)c3c2)cc1 (centres unmarked) [compound 62, (3-Methyl-1H-pyrazolo[3,4-b]pyridin-5-yl)-(2-p-tolyl-pyrrolidin-1-yl)-methanone]
< 0.01 | Cc1n[nH]c2ncc(C(=O)N3CCCC3c3ccc(C(F)(F)F)cc3)cc12 (centres unmarked) [compound 63, (3-Methyl-1H-pyrazolo[3,4-b]pyridin-5-yl)-[2-(4-trifluoromethyl-phenyl)-pyrrolidin-1-yl]-methanone]
0.1 to 1 | Cc1n[nH]c2ncc(C(=O)N3CCCC3c3ccccc3OCC(F)(F)F)cc12 (centres unmarked) [compound 65, (3-Methyl-1H-pyrazolo[3,4-b]pyridin-5-yl)-{2-[2-(2,2,2-trifluoro-ethoxy)-phenyl]-pyrrolidin-1-yl}-methanone]

Same assay, conditions: IC50 [μM], CDK8 co-expressed with CycC; class symbols

IC50 [µM] | SMILES
0.1 to 1 | Cc1n[nH]c2ccc(C(=O)N3CCC[C@@H]3c3ccc(Cl)cc3)cc12 [compound 47, [(R)-2-(4-Chloro-phenyl)-pyrrolidin-1-yl]-(3-methyl-1H-indazol-5-yl)-methanone]
< 0.01 | Cc1n[nH]c2ccc(C(=O)N3CCC[C@H]3c3ccc(Cl)cc3)cc12 [compound 48, [(S)-2-(4-Chloro-phenyl)-pyrrolidin-1-yl]-(3-methyl-1H-indazol-5-yl)-methanone]
< 0.01 | Cc1n[nH]c2ccc(C(=O)N3CCC[C@H]3c3ccc(Cl)cc3)nc12 [compound 52, [(S)-2-(4-Chloro-phenyl)-pyrrolidin-1-yl]-(3-methyl-1H-pyrazolo[4,3-b]pyridin-5-yl)-methanone]
